Legend:
[1] = tested on: BCR-ABL-driven K-562 xenografts; assay: K-562 xenograft experiment; type: in vivo, C.B.17/SCID mice; conditions: 10 mg kg^-1 i.p., three times a week for two weeks
Experimental: Based on this promising in vitro data, the antitumor activity of our novel cobalt(III) complexes Co(acac)2LPon and Co(Meacac)2LPon was evaluated in xenograft mouse models. As a first in vivo experiment, BCR-ABL-driven K-562 cells were injected subcutaneously (s.c.) and treated intraperitoneally (i.p.) with the test compounds at 10 mg kg^−1 or the respective amount of solvent three times a week, for two weeks. Treatment with our novel derivatives was well tolerated and even after repeated i.p. applications no substantial body weight loss was observed (Fig. S13A ^†). […] Consequently, anticancer activity of Co(acac)2LPon was also investigated against FGFR3-driven UM-UC-14 xenografts using the identical treatment regime.
Fig. 11 In vivo anticancer activity of the investigated cobalt(III) complexes. […] Tumor sizes were evaluated by caliper measurement. […] Statistical significance was calculated by two-way ANOVA with Sidak multiple comparison test with p < 0.05(*); <0.01 (**).
Eight-to nine-week-old male C.B.17/SCID mice were bread in-house (originally Harlan) and were kept in pathogen-free conditions and controlled environment with 12 h light–dark cycle. […] Tumor growth was evaluated by daily recording of tumor size by caliper measurement. […]

[2] = tested on: p-ERK1/2 and p-S6 in K-562 cells; assay: western blot of downstream signalling, 12 h; type: cell-based, human; conditions: hypoxic conditions, K-562, 12 h
Experimental: Fig. 10 Impact of the cobalt(III) complexes on the ERK1/2 and S6 under normoxic and hypoxic conditions. K-562 cells were treated with the compounds, after 12 h cell lysates were prepared and protein expression as well as phosphorylation levels of downstream pathways (p-ERK1/2 and p-S6) analyzed by western blotting. One representative experiment out of three is shown. The ratio of phosphorylated to total protein is given between the respective lanes.
K-562 cells were plated (5 × 10^5 cells per well) in 6-well plates and allowed to recover for 24 h. Subsequently, the cells were treated with the drugs in different concentrations. After 12 h cells were harvested, proteins were isolated, resolved by sodium dodecyl sulfate polyacrylamide gel electrophoresis (SDS/PAGE), and transferred onto a polyvinylidene difluoride membrane for western blotting. The following antibodies were used: ERK1/2 (p44/42) rabbit monoclonal antibody (mAb) (137F5, #4695), phospho-ERK1/2 rabbit mAb (Thr202/Tyr204) (20G11, #4376), phospho-S6 rabbit pAb (Ser240/244, #2215) (Cell Signaling Technology, Beverly, MA, USA), S6 mouse mAb (C-8. #sc-74459) (Santa Cruz Biotechnology, TX, USA) and β-actin mouse mAb (#A5441, Sigma). All primary antibodies were used in 1 : 1000 dilutions (in Tris-buffered saline containing 0.1% Tween20 (TBST) + 3% bovine serum albumin (BSA)). Secondary goat anti-mouse-IgG (Fc specific)-peroxidase antibody (#A0168, Sigma) and horseradish peroxidase(HRP)-labeled mouse anti-rabbit IgG (#sc-2357, Santa Cruz Biotechnology) were used at working dilutions of 1 : 10 000 (in TBST + 1% BSA).

UM-UC-14 cells = assay: ligand release by UV fluorescence microscopy; type: cell-based, human; conditions: 10 μM, 24 h, UM-UC-14, fluorescence microscopy
Experimental: The enhanced stability of Co(acac)2LPon under normoxia and its hypoxia-induced ligand release was subsequently confirmed by fluorescence microscopy. Fluorescence intensities indicated a ∼2.8-fold decreased stability of the cobalt(III) complex under hypoxic vs. normoxic cell culture conditions.
UM-UC-14 cells were seeded (2.5 × 10^5 cells per well) in 12-well plates and after 24 h recovery treated with 10 μM of compounds. After 24 h incubation, the drug solutions were removed, cells were washed with PBS and microphotographs of the different treatments were taken using UV fluorescence microscopy (Nikon Eclipse Ti2 microscope with a DAPI filter and a high-pressure mercury lamp) and a 20× objective. The level of cellular fluorescence was determined from fluorescence microscopy images using ImageJ software.
Figure S9: Ligand release of Co(acac)2LPon under normoxic and hypoxic cell culture conditions in comparison to LPon using UV fluorescence microscopy. UM-UC-14 cells were incubated with 10 µM of compounds for 24 h. Images of the different treatments were taken by UV fluorescence microcopy (20X objective) and the corrected total cell fluorescence was evaluated using ImageJ software. Data in Figure S9B are given as means ± SD of ten analyzed microphotographs per compound. Statistical significance was calculated by unpaired t test with p < .05(*). […]

**Q.** Which results are given for CC(=O)C=C(C)[O-].CC(=O)C=C(C)[O-].Cc1ccc(C(=O)Nc2ccc(CNCCN)c(C(F)(F)F)c2)cc1C#Cc1cnc2cccnn12.O=C(O)C(F)(F)F.[Co+3] [Co(acac)2LPon, Bis(2,4-pentanedionato)N-(4-(((2-aminoethyl)amino)methyl)-3-(trifluoromethyl)phenyl)-3-(imidazo[1,2-b]pyridazin-3-ylethynyl)-4-methylbenzamide cobalt(III) 2,2,2-trifluoroacetate]?
**A.** tumor growth vs solvent controls [1]: significantly reduced tumor growth; activity on S6 phosphorylation compared with ponatinib [2]: equally active as compared to ponatinib; fluorescence intensity change (decreased stability) hypoxic vs. normoxic (UM-UC-14 cells): ~2.8 fold

— article PMC8129988 (Inorganic Chemistry Frontiers, 2021)
